Reference: ChEMBL document CHEMBL4014292, “Novel 11-norbetaenone isolated from an entomopathogenic fungus Lecanicillium antillanum” (Bioorg Med Chem Lett, 2017)
Converted amounts (≈) assume the structure as drawn. The source made the active and inactive calls. The rule behind the calls is not given here.

Experiments:
[1] = tested on: Staphylococcus aureus; experiment: Antimicrobial activity against Methicillin-resistant Staphylococcus aureus ATCC 33592 at 2 mg/ml after 24 hrs by agar well-diffusion method; type: functional
[2] = tested on: HepG2; experiment: Antiproliferative activity against human HepG2 cells at 20 ug/mL after 72 hrs by MTT assay; type: functional, cell-based
[3] = tested on: EPC; experiment: (§1) Antiangiogenic activity against human CD34-positive EPC assessed as inhibition of tube formation after 24 hrs by matrigel based inverted phase contrast microscopic analysis; type: functional, cell-based
[4] = as §1; type: functional, cell-based
[5] = tested on: Neutrophil; experiment: Anti-inflammatory activity in fMLP/CB-stimulated human neutrophils assessed as reduction in superoxide generation at 30 ug/mL preincubated for 5 mins followed by cytochalasin B addition for 3 mins and subsequent fMLP-stimulation for 10 mins by ferricytochrome c reduction based spectrophotometric assay; type: functional, cell-based
[6] = tested on: Neutrophil; experiment: Anti-inflammatory activity in fMLP/CB-stimulated human neutrophils assessed as reduction in elastase release at 30 ug/mL using MeO-Suc-Ala-Ala-Pro-Val-p-nitroanilide as substrate preincubated for 5 mins followed by cytochalasin B addition and subsequent fMLP-stimulation for 10 mins by spectrophotometric assay; type: functional, cell-based
[7] = Cytotoxicity against CD34-positive human EPC at 25 to 50 ug/mL after 24 hrs by LDH release assay; type: cell-based
[8] = tested on: A549; experiment: Antiproliferative activity against human A549 cells at 20 ug/mL after 72 hrs by MTT assay; type: functional, cell-based
[9] = tested on: MDA-MB-231; experiment: Antiproliferative activity against human MDA-MB-231 cells at 20 ug/mL after 72 hrs by MTT assay; type: functional, cell-based

CC[C@@H](C)[C@H]1C=C[C@H]2[C@H](O)[C@@H](CO)C[C@@H](C)[C@@H]2[C@@]1(C)C(=O)CCO
Activity [1]: inactive
Activity [2]: inactive
inhibition [3]: Dose-dependent effect
IC50 [4]: 34.1 µg/mL (≈ 101 µM)
Activity [5]: inactive
Activity [6]: inactive
Activity [7]: Non-Toxic
Activity [8]: inactive
Activity [9]: inactive
